Test results: ChEMBL document CHEMBL3046409, “Studies on radioprotective and antiviral activities of some bischalcone derivatives” (Med Chem Res, 2012)

Legend:
[1] = Cytotoxicity against Chlorocebus aethiops (African green monkey) Vero cells assessed as maximum non-toxic concentration after 24 hr; format: cell-based; conditions: chlorocebus sabaeus, read-out: Activity
Camelpox virus = test: Antiviral activity against Camelpox virus infected African green monkey Vero cells assessed as reduction of viral titer after 48 hr; format: functional
Buffalopox virus = test: Antiviral activity against Buffalopox virus infected African green monkey Vero cells assessed as reduction of viral titer after 48 hr; format: functional

O=C1/C(=C/c2ccc(F)cc2)CC/C1=C\c1ccc(F)cc1
MNTC at 24 h [1]: 0.0833 µg/mL
inhibition (INH) (Camelpox virus): 54.29%
inhibition (INH) (Buffalopox virus): 73.69%
